Data on 25 compounds can be found in PMC10023679, “Amide-to-ester substitution as a stable alternative to N-methylation for increasing membrane permeability in cyclic peptides” (Nature Communications, 2023).

SMILES strings stand for the structures. Non-standard residues stand in square brackets, D forms with d. Residues, ends and D or L forms follow the SMILES beside them. NMeF = CN[C@@H](Cc1ccccc1)C(=O)O; PhLac = O=C(O)[C@@H](O)Cc1ccccc1; Hica(2S) = CC(C)C[C@H](O)C(=O)O; NMeL = CN[C@@H](CC(C)C)C(=O)O; dHica = CC(C)C[C@@H](O)C(=O)O; dNMeL = CN[C@H](CC(C)C)C(=O)O

One data set in a line: in vitro. The format is in vitro ADME.
A short description of data set [1]: Caco-2 assay (permeability across cell monolayers). The format is in vitro ADME. The conditions noted are these: Caco-2, 1 μM compounds in HBSS (pH 7.4) containing 10 mM HEPES and 1% DMSO, 3 h incubation at 37 °C, read-out: Caco-2 permeability Pa.
Data set [2] in a line: 1,9-decadiene-water distribution coefficient. The format is physicochemical. The conditions noted are these: decadiene and aqueous buffer.
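Wherever Pe (PAMPA), CP1-Y1F-L2K series is given: filter plate membrane of 1% soybean lecithin in dodecane, donor and acceptor in 5% DMSO/PBS, incubated at 25 °C, peptide in both compartments measured by LC-MS.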

Consider `CC(C)C[C@@H]1NC(=O)[C@@H](CC(C)C)NC(=O)[C@H](CO)NC(=O)[C@H](Cc2ccccc2)N(C)C(=O)[C@H]2CCCN2C(=O)[C@H](CC(C)C)NC1=O` [CP1-Y1F-L2S NMe] (cyclo(LL[dP][NMeF]S[dL])), for which the Papp in “in vitro” (PAMPA) is 0.5 ×10⁻⁶ cm/s. The compound `CC(C)C[C@@H]1NC(=O)[C@@H](CC(C)C)N(C)C(=O)[C@H](CC(C)C)NC(=O)[C@H](Cc2ccc(O)cc2)NC(=O)[C@H]2CCCN2C(=O)[C@H](CC(C)C)NC1=O` [MP3] (cyclo(LL[dP]YL[dNMeL])) returned a Papp at 16 h, 2 μM in “in vitro” (PAMPA) of 0.6 ×10⁻⁶ cm/s. For the same compound, the Papp at 3 h, 1 μM in data set [1] (human) amounted to 0.2 ×10⁻⁶ cm/s.

`CC(C)C[C@@H]1C(=O)N[C@H](C(C)C)C(=O)N[C@H](C)C(=O)N2CCC[C@@H]2C(=O)N(C)[C@H](CC(C)C)C(=O)N[C@H](C(C)C)C(=O)N[C@H](C)C(=O)N2CCC[C@@H]2C(=O)N1C` [D8.31, reference compound] (cyclo([dA][dP][dNMeL][dV][dA][dP][dNMeL][dV])): the Papp at 16 h, 3 μM in the data set “in vitro” (PAMPA) amounted to 0.2 ×10⁻⁶ cm/s.

As for `CC(C)C[C@@H]1NC(=O)[C@H](Cc2ccc(O)cc2)NC(=O)[C@H]2CCCN2C(=O)[C@H](CC(C)C)NC(=O)[C@H](CC(C)C)N(C)C(=O)[C@@H](CC(C)C)NC1=O` [MP4] (cyclo(L[dL][NMeL]L[dP]Y)), the Papp in “in vitro” (PAMPA) is 2.5 ×10⁻⁶ cm/s; in data set [1], 0.5 ×10⁻⁶ cm/s. `CC(C)C[C@@H]1NC(=O)[C@H](Cc2ccc(O)cc2)NC(=O)[C@H]2CCCN2C(=O)[C@H](CC(C)C)OC(=O)[C@H](CC(C)C)NC(=O)[C@@H](CC(C)C)NC1=O` [DP5] (cyclo(L[dL]L[Hica(2S)][dP]Y)): the Papp in “in vitro” (PAMPA) was determined as 4.4 ×10⁻⁶ cm/s; in data set [1], 2.8 ×10⁻⁶ cm/s.

In “in vitro” (PAMPA), `CC(C)C[C@@H]1NC(=O)[C@H]2CCCN2C(=O)[C@H](CC(C)C)OC(=O)[C@@H](C(C)C)NC(=O)[C@H](CC(C)C)NC(=O)[C@H]2CCCN2C(=O)[C@H](CC(C)C)N(C)C(=O)[C@@H](C(C)C)NC1=O` [D8.21-ester] (cyclo(L[dV][NMeL][dP]L[dV][Hica(2S)][dP])) gave a Papp at 16 h, 3 μM of 5.8 ×10⁻⁶ cm/s. `CC(=O)N[C@@H](Cc1ccccc1)C(=O)O[C@@H](Cc1ccccc1)C(N)=O` [D1]: the “log Ddec/w (1,9-decadiene–water distribution coefficient)” value (shortened to “log Ddec/w”) in data set [2] was “–1.17 ± 0.01”. This compound also had a Papp in “in vitro” (PAMPA, pH 7.4) of 1.2 ×10⁻⁶ cm/s. The compound `CC(C)C[C@@H]1C(=O)N[C@H](C(C)C)C(=O)N[C@H](C)C(=O)N2CCC[C@@H]2C(=O)O[C@H](CC(C)C)C(=O)N[C@H](C(C)C)C(=O)N[C@H](C)C(=O)N2CCC[C@@H]2C(=O)N1C` (cyclo([dA][dP][dNMeL][dV][dA][dP][dHica][dV])) came in with a Papp at 16 h, 3 μM in “in vitro” (PAMPA) of 0.03 ×10⁻⁶ cm/s. Regarding `CC(=O)N[C@@H](CC(C)C)C(=O)N(C)[C@@H](CC(C)C)C(N)=O` [M3], the “log Ddec/w” value in data set [2] was “–2.13 ± 0.02”. The compound further displayed a Papp in the data set “in vitro” (PAMPA, pH 7.4) of 0.1 ×10⁻⁶ cm/s. Consider `CC(C)C[C@@H]1NC(=O)[C@@H](CC(C)C)OC(=O)[C@H](CC(C)C)NC(=O)[C@H](Cc2ccc(O)cc2)NC(=O)[C@H]2CCCN2C(=O)[C@H](CC(C)C)NC1=O` [DP3] (cyclo(LL[dP]YL[dHica])), for which the Papp in the data set “in vitro” (PAMPA) came to 1.3 ×10⁻⁶ cm/s; in data set [1], 0.2 ×10⁻⁶ cm/s. `CC(C)C[C@@H]1NC(=O)[C@@H](CC(C)C)NC(=O)[C@H](CO)NC(=O)[C@H](Cc2ccccc2)NC(=O)[C@H]2CCCN2C(=O)[C@H](CC(C)C)NC1=O` [CP1-Y1F-L2S] (cyclo(FS[dL]LL[dP])) came in with a Papp in the data set “in vitro” (PAMPA) of 0.3 ×10⁻⁶ cm/s.

Regarding `CC(C)C[C@@H]1NC(=O)[C@@H](CC(C)C)NC(=O)[C@H](CC(C)C)N(C)C(=O)[C@H](Cc2ccc(O)cc2)NC(=O)[C@H]2CCCN2C(=O)[C@H](CC(C)C)NC1=O` [MP2] (cyclo(LL[dP]Y[NMeL][dL])), the Papp in the data set “in vitro” (PAMPA) is 1 ×10⁻⁶ cm/s; in data set [1], 0.3 ×10⁻⁶ cm/s. As to `CC(C)C[C@@H]1NC(=O)[C@@H](CC(C)C)NC(=O)[C@H](CCCCN)NC(=O)[C@H](Cc2ccccc2)NC(=O)[C@H]2CCCN2C(=O)[C@H](CC(C)C)NC1=O` [CP1-Y1F-L2K] (cyclo(FK[dL]LL[dP])), the Papp in the data set “in vitro” (PAMPA) was less than 0.0007 ×10⁻⁶ cm/s.

Compound `CC(C)C[C@@H]1NC(=O)[C@H](CC(C)C)N(C)C(=O)[C@@H](C(C)C)NC(=O)[C@H](C)NC(=O)[C@H](C)NC(=O)[C@H]2CCCN2C(=O)[C@@H](CC(C)C)NC(=O)[C@@H]2CCCN2C(=O)[C@H](CC(C)C)NC1=O` (relative stereo) yielded a Papp at 16 h, 3 μM in “in vitro” (PAMPA) of 0.1 ×10⁻⁶ cm/s.

Regarding `CC(C)C[C@@H]1NC(=O)[C@H](Cc2ccc(O)cc2)NC(=O)[C@H]2CCCN2C(=O)[C@H](CC(C)C)NC(=O)[C@H](CC(C)C)OC(=O)[C@@H](CC(C)C)NC1=O` [DP4] (cyclo(L[dL][Hica(2S)]L[dP]Y)), the Papp was determined as 4.2 ×10⁻⁶ cm/s in “in vitro” (PAMPA) and 1.2 ×10⁻⁶ cm/s in data set [1].

As for `CC(=O)N[C@@H](Cc1ccccc1)C(=O)N[C@@H](Cc1ccccc1)C(N)=O` [P1] (Ac-Phe-Phe-NH2), in data set [2], the “log Ddec/w” value is given as “–2.75 ± 0.01”. In “in vitro” (PAMPA), `CC(C)C[C@@H]1NC(=O)[C@H]2CCCN2C(=O)[C@H](CC(C)C)N(C)C(=O)[C@@H](C(C)C)NC(=O)[C@H](CC(C)C)NC(=O)[C@H]2CCCN2C(=O)[C@H](CC(C)C)N(C)C(=O)[C@@H](C(C)C)NC1=O` [D8.21, reference compound] (cyclo(L[dV][NMeL][dP]L[dV][NMeL][dP])) gave a Papp at 16 h, 3 μM of 8.2 ×10⁻⁶ cm/s. Turning to `CC(C)C[C@@H]1NC(=O)[C@@H](CC(C)C)NC(=O)[C@H](CO)NC(=O)[C@H](Cc2ccccc2)OC(=O)[C@H]2CCCN2C(=O)[C@H](CC(C)C)NC1=O` [CP1-Y1F-L2S O] (cyclo(LL[dP][PhLac]S[dL])), in the data set “in vitro” (PAMPA), the Papp was determined as 4.1 ×10⁻⁶ cm/s.

In turn, `CC(C)C[C@@H]1NC(=O)[C@H]2CCCN2C(=O)[C@H](CC(C)C)NC(=O)[C@@H](C(C)C)NC(=O)[C@H](CC(C)C)NC(=O)[C@H]2CCCN2C(=O)[C@H](CC(C)C)N(C)C(=O)[C@@H](C(C)C)NC1=O` [D8.21-amide] (cyclo(L[dP]L[dV][NMeL][dP]L[dV])) gave a Papp at 16 h, 3 μM in the data set “in vitro” (PAMPA) of 1.6 ×10⁻⁶ cm/s. `CC(C)C[C@@H]1C(=O)N[C@H](C(C)C)C(=O)N[C@H](C)C(=O)N2CCC[C@@H]2C(=O)N[C@H](CC(C)C)C(=O)N[C@H](C(C)C)C(=O)N[C@H](C)C(=O)N2CCC[C@@H]2C(=O)N1C` (cyclo([dA][dP][dL][dV][dA][dP][dNMeL][dV])) gave a Papp at 16 h, 3 μM in “in vitro” (PAMPA) of 0.01 ×10⁻⁶ cm/s. For the compound `CC(C)C[C@@H]1NC(=O)[C@H](Cc2ccc(O)cc2)NC(=O)[C@H]2CCCN2C(=O)[C@H](CC(C)C)N(C)C(=O)[C@H](CC(C)C)NC(=O)[C@@H](CC(C)C)NC1=O` [MP5] (cyclo(L[NMeL][dP]YL[dL])), the Papp worked out at 1.7 ×10⁻⁶ cm/s in “in vitro” (PAMPA) and 1.2 ×10⁻⁶ cm/s in data set [1]. `CC(C)C[C@@H]1NC(=O)[C@@H](CC(C)C)NC(=O)[C@H](CCCCN)NC(=O)[C@H](Cc2ccccc2)OC(=O)[C@H]2CCCN2C(=O)[C@H](CC(C)C)NC1=O` [CP1-Y1F-L2K O] (cyclo(K[dL]LL[dP][PhLac])): in the data set “in vitro”, the “Pe (PAMPA), CP1-Y1F-L2K series” value turned out to be 4.9 ×10⁻⁶ cm/s. The same compound returned a Papp in the data set “in vitro” (PAMPA) of 0.0049 ×10⁻⁶ cm/s. As for `CC(=O)N[C@@H](Cc1ccccc1)C(=O)N(C)[C@@H](Cc1ccccc1)C(N)=O` [M1] (Ac-Phe-[NMeF]-NH2), in data set [2], the “log Ddec/w” value is listed as “–1.24 ± 0.01”.

Compound `CC(C)C[C@@H]1NC(=O)[C@@H](CC(C)C)NC(=O)[C@H](CCCCN)NC(=O)[C@H](Cc2ccccc2)N(C)C(=O)[C@H]2CCCN2C(=O)[C@H](CC(C)C)NC1=O` [CP1-Y1F-L2K NMe] (cyclo(K[dL]LL[dP][NMeF])) returned a Papp in the data set “in vitro” (PAMPA) of less than 0.00075 ×10⁻⁶ cm/s.

`CC(C)C[C@@H]1NC(=O)[C@H](CC(C)C)N(C)C(=O)[C@@H](C(C)C)NC(=O)[C@H](C)NC(=O)[C@H](C)OC(=O)[C@H]2CCCN2C(=O)[C@@H](CC(C)C)NC(=O)[C@@H]2CCCN2C(=O)[C@H](CC(C)C)NC1=O` (relative stereo) had a Papp at 16 h, 3 μM in the data set “in vitro” (PAMPA) of 1.1 ×10⁻⁶ cm/s.
